# Results taken from patent US20100286247A1, “Methods of Protection from Oxidative Stress” (Trustees of Boston University, priority 2005, published 2010).
# {P} = phosphate
# Experiments:
# [1] = system: extracellular H2O2 from newborn fibroblasts; experiment: Extracellular hydrogen peroxide generation assay (horseradish peroxidase); format: cell-based, human; details: 100 μM, two days treatment
# Protocol: This assay was described by Ruch et al. for measurement of H2O2 production by macrophages and neutrophils^93 and modified for cultured cytokine-stimulated human lung fibroblasts by Thannickal et al.^94 Briefly, it utilizes horseradish peroxidase (HRP) to catalyze H2O2-dependent dimerization of tyrosine in homovanillic acid (HVA), where the H2O2 is the extracellular fraction of H2O2 produced by stimulated cells. Fibroblasts were seeded at 0.5×10^4 cells/cm^2 and treated the following day with diluent, 100 μM pTT, 100 μM pAA, 40 μM TO or 40 μM TOC1 for two days. These doses were determined in previous studies to be the optimal effective doses to achieve p53 induction and cell cycle arrest in fibroblasts within the parameters used in these investigations (cell seeding density and time of treatment).^13,142 An assay medium consisting of sterile Hanks' Balanced Salt Solution (HBSS), HRP (5 U/ml) and HVA ([…]) was added to cells after removal of the T-oligo-supplemented medium. […] Each sample was fluorometrically analyzed by excitation of the dimerized tyrosine product at 323 nm with emission measured at 423 nm (Perkin-Elmer LS-5B Luminescence Spectrometer). The same cells were then harvested and counted by Coulter Counter. […] Using the cell count results, H2O2 production was expressed as a function of time and cell number (pmol/min/million cells). […]
# [2] = system: melanoma tumors; details: SCID mouse model; cited from earlier work
Substance,extracellular H2O2 production [1],melanoma tumors [2]
5′-phosphorylated thymidine dinucleotides [pTT],does not yield extracellular H2O2,–
"pGTTAGGGTTAG (5' {P}, sugars by position and backbone not given here) [TO]",–,reduced melanoma tumors
